According to patent US11731946B2, “Broad spectrum antivirulence, anti-persistence compounds” (priority 2017, dated 2023):

Assays:
[1] = system: MvfR regulon; assay: Quantification of pyocyanin (OD520nm of chloroform-extracted cultures); type: cell-based, P. aeruginosa; conditions: for activity at 50 µM: read-out: pyocyanin @50 uM (%), compound at 50 uM; for activity at 1 µM: read-out: pyocyanin @1 uM (%), compound at 1 uM; for activity at 10 µM: read-out: pyocyanin @10 uM (%), compound at 10 uM
[2] = system: MvfR regulon; assay: LC/MS quantification of HAQs and related molecules in bacterial culture supernatants; type: cell-based, P. aeruginosa; conditions: Pseudomonas aeruginosa
[3] = system: MvfR regulon; assay: pqsA gene expression (pqsA-GFP reporter); type: cell-based, P. aeruginosa; conditions: for IC50 / activity at 50 µM / activity at 10 µM: Pseudomonas aeruginosa; for IC50: read-out: IC50 pqsA (μM); for activity at 50 µM: read-out: pqsA @50 uM (%), compound at 50 uM; for activity at 10 µM: read-out: pqsA @10 uM (%), compound at 10 uM
[4] = biological target: T1, MvfR (Pseudomonas aeruginosa, UniProt Q9I4X0); assay: Surface plasmon resonance (SPR) binding to purified MvfR co-inducer binding domain; parameters: species or system P. aeruginosa; conditions: SPR
T1 construct: made in house
T1 sequence (Q9I4X0 91-332): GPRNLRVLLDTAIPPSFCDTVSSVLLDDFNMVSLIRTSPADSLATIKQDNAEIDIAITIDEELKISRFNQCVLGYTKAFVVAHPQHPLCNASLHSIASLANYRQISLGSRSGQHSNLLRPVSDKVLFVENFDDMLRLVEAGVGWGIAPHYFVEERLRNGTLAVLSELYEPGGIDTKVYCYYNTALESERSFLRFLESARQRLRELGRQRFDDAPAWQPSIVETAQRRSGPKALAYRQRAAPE
Protocol: Compounds identified to interfere with MvfR were confirmed for the direct physical interaction with this protein. Using SPR, the percentage of compound's binding to the purified MvfR protein was analyzed and used to determine the binding parameters (KD, kon and koff)—thus determining the kinetic of interaction with MvfR.
The recombinant MvfR co-inducer binding domain was purified using Ni-NTA chromatography, as previously reported (see e.g., Xiao et al, Microbiology, 2006, 152:1679-1686; Starkey et al, PLoS Pathog. 2014, 10:e1004321; and Kefala et al, Acta. Crystallogr. Sect. F. Struct. Biol. Cryst. Commun. 2012, 68:695-697). The purified protein was immobilized with the amine coupling method at a target level of 5000 RU on Chip. SPR was performed according to previously reported procedures (see e.g., Starkey et al, PLoS Pathog. 2014, 10:e1004321; Maura et al, ACS Chemical Biology, 2017, 12:1435-1443; and Kitao et al, MBIO, in press). […] Table 3 lists the steady-state KD data measured by SPR.

[5] = system: Caco2 intestinal epithelial cells; assay: Survival of Caco2 cells after compound exposure; type: cell-based; conditions: 25 μM, 3 hours exposure
[6] = system: Pseudomonas aeruginosa MDR clinical isolates; assay: Pyocyanin production in MDR clinical isolates; type: cell-based; conditions: 10 μM
Protocol: Percentage of pyocyanin production is presented in presence of 10 μM of D57 or D88 compounds. Tukey's multiple comparisons test p<0.0001.
Pyocyanin levels were determined by measuring OD520nm of chloroform-extracted cultures.

[7] = Pseudomonas aeruginosa, read-out: IC50 pyocyanin (μM)
[8] = Steady State Binding Affinity KD (μM), steady state
[9] = Steady State Binding Affinity KD [M], steady state
[10] = mean KD value, mean over the compounds named
[11] = compound at 10 uM, listed as D62
[12] = compound at 50 uM, listed as D62

SMILES | IC50 [1, 7] [µM] | activity at 50 µM ([1]; Pseudomonas aeruginosa) [%] | activity at 50 µM ([2]; read-out: 2-AA @50 uM) [%] | activity at 50 µM ([2]; read-out: AA @50 uM) [%] | activity at 50 µM ([2]; read-out: DHQ @50 uM) [%] | activity at 50 µM ([2]; read-out: HHQ @50 uM (%)) [%] | activity at 50 µM ([2]; read-out: HQNO @50 uM (%)) [%] | activity at 50 µM ([2]; read-out: PQS @50 uM (%)) [%] | IC50 [3] [µM] | activity at 50 µM [3] [%] | Signal Intensity Rmax [4] | Kd [4, 8] [µM] | Kd [4, 9] [µM] | activity at 10 µM [3] [%] | activity at 1 µM ([1]; Pseudomonas aeruginosa) [%] | activity at 10 µM ([1]; Pseudomonas aeruginosa) [%] | further results
Cc1cc(F)ccc1NCC(=O)Nc1ccc(C#N)cc1 [Compound 1] | 70.6 | 66.8 | 101 | 100 | 135 | 2.67 | 17 | 10.5 | 20.2 | 32.4 | 23.41 | 9.18 | 9.19 |  |  |  | IC50 ([2]; PA14, read-out: IC50 HHQ (μM)): 10.4 µM; IC50 ([2]; PA14, read-out: IC50 PQS (μM)): 15.1 µM; IC50 ([2]; read-out: IC50 HQNO (μM)): 20.3 µM
N#Cc1ccc(NC(=O)CC(=O)Nc2ccc(C#N)cc2)cc1 [Compound 57] | 1.37 | 8.07 | 20 | 531 | 31.9 | 18.1 | 36 | 22.3 | 0.94 | 8.3 | 27.05 | 0.286 | 0.286 |  |  |  | binding intensity relative to parent Compound 1 [4]: 40 times; Kd [4, 10]: ~0.25 µM
CC(=O)c1ccc(NC(=O)CC(=O)Nc2ccc(C#N)cc2)cc1 [Compound 63] |  | 65.6 | 89.9 | 131 | 106 | 120 | 101 | 119 | 57.1 | 28 |  |  |  | 86.5 |  |  | 
N#Cc1ccc(NC(=O)CC(=O)Nc2ccc(C(=O)C(F)(F)F)cc2)cc1 [Compound 64] |  | 84 | 140 | 176 | 88.8 | 107 | 103 | 104 |  | 102 |  |  |  | 107 |  |  | 
N#Cc1ccc(NC(=O)CC(=O)Nc2ccc([N+](=O)[O-])cc2)cc1 [Compound 65] |  | 3.4 | 6.94 |  | 12.3 | 2.88 | 18.4 | 6.32 | 2.54 | 9.5 | 29.51 | 0.399 | 0.399 |  | 80.3 | 29.7 | IC50 ([1]; read-out: IC50 pyocyanin): 4.48 µM; toxicity to Caco2 (survival) [5]: not toxic; IC50 ([2]; PA14, read-out: IC50 2-AA (μM)): 8.95 µM; IC50 ([2]; PA14, read-out: IC50 DHQ (μM)): 11.3 µM; IC50 ([2]; PA14, read-out: IC50 HHQ (μM)): 21.2 µM; IC50 ([2]; PA14, read-out: IC50 PQS (μM)): 23 µM; IC50 ([2]; read-out: IC50 AA (increase; μM)): 34 µM; IC50 ([2]; read-out: IC50 HQNO (μM)): 23.3 µM
N#Cc1ccc(NC(=O)CC(=O)Nc2ccc(N)cc2)cc1 [Compound 67] |  | 87.2 | 101 | 115 | 103 | 92.3 | 91.7 | 86.4 |  | 89.7 |  |  |  | 97.9 |  |  | 
CC(=O)Nc1ccc(NC(=O)CC(=O)Nc2ccc(C#N)cc2)cc1 [Compound 68] |  | 103 | 92.8 | 56 | 98.2 | 74.7 | 84.6 | 87.6 |  | 84.8 |  |  |  | 94.2 |  |  | 
N#Cc1ccc(NC(=O)CC(=O)Nc2ccc(NC(=O)C(F)(F)F)cc2)cc1 [Compound 69] |  | 93.8 | 117 | 82.4 | 108 | 103 | 101 | 101 |  | 84.9 |  |  |  | 94.2 |  |  | 
CS(=O)(=O)CNc1ccc(NC(=O)CC(=O)Nc2ccc(C#N)cc2)cc1 [Compound 70] |  | 99.7 | 94.8 | 117 | 80 | 130 | 98.3 | 115 |  | 131 |  |  |  | 94.7 |  |  | 
N#Cc1ccc(NC(=O)CC(=O)Nc2ccc(I)cc2)cc1 [Compound 71] | 1.63 | 13.3 |  |  |  |  |  |  | 0.72 | 6.03 | 30.74 | 0.259 | 0.259 | 13.3 |  |  | toxicity to Caco2 (survival) [5]: not toxic; binding intensity relative to parent Compound 1 [4]: 40 times; Kd [4, 10]: ~0.25 µM
O=C(CC(=O)Nc1ccc([N+](=O)[O-])cc1)Nc1ccc(Oc2ccccc2)cc1 [Compound 73] | 0.398 | 5.9 |  |  |  |  |  |  | 0.21 | 8.9 | 33.31 | 0.755 | 0.755 | 1.95 | 9.2 | 5.2 | 
O=C(CC(=O)Nc1ccc([N+](=O)[O-])cc1O)Nc1ccc(Oc2ccccc2)cc1 [Compound 76] | 0.368 | 5.6 |  |  |  |  |  |  | 0.42 | 6.7 | 36.46 | 0.478 | 0.478 | 10 | 10.5 | 6.17 | activity on pyocyanin production in MDR clinical isolates [6]: highly active
N#Cc1ccc(NC(=O)CC(=O)Nc2ccc(Oc3ccccc3)cc2)c(N)c1 [Compound 77] |  |  |  |  |  |  |  |  |  |  |  |  |  |  |  |  | activity on pyocyanin production in MDR clinical isolates [6]: highly active; pyocyanin @1 uM (%) ([1]; compound at 1 uM, listed as D62): 57.50%; pyocyanin @10 uM (%) [1, 11]: 6.17%; pyocyanin @50 uM (%) [1, 12]: 7.30%; pqsA @10 uM (%) [3, 11]: 1.51%; pqsA @50 uM (%) [3, 12]: 6.20%
N#Cc1ccc(NC(=O)CC(=O)Nc2ccc(Oc3ccccc3)cc2)c(O)c1 [Compound 78] | 0.618 | 5.9 |  |  |  |  |  |  | 0.938 | 7.3 | 34.69 | 0.494 | 0.494 | 9.63 | 8.8 | 5.73 | activity on pyocyanin production in MDR clinical isolates [6]: highly active
N#Cc1ccc(NC(=O)CC(=O)Nc2ccc(C#N)c(Cl)c2)cc1 [Compound 110] |  | 4.12 |  |  |  |  |  |  |  | 5.61 |  |  |  | 1.75 | 64.7 | 6.8 | Kd [4, 10]: 0.25 µM
